{
  "source": "patent US20250367267A1",
  "about": "“TREATING AUTOIMMUNE DISEASES WITH INSULIN-LIKE GROWTH FACTOR 1 RECEPTOR LIGAND CONJUGATED TO AN AGENT” (Lirum Therapeutics, Inc., priority 2022, published 2025)",
  "molecules": {"B1": {"name": "IGF132: first 17 amino acids of the B chain of insulin replace the first 16 amino acids of human IGF-1 (protein)", "chain": "FVNQHLCGSHLVEALYLVCGDRGFYFNKPTGYGSSSRRAPQTGIVDECCFRSCDLRRLEMYCAPLKPAKSA"}},
  "key": {"[1]": {"tested_on": "CD19+ B cells and CD3+ T cells in the peripheral blood of SLE patients", "conditions": "Jacobi et al 2010; cited from earlier work"}, "[2]": {"tested_on": "bulk subpopulations of PBMCs from patients with SLE, RA and SSc", "assay": "Effect of LX-101 on bulk PBMC subpopulations (percentage of live cells by flow cytometry)", "format": "cell-based, human", "conditions": "17 μM LX-101, three days", "source_text": "Frozen peripheral blood mononuclear cells (PBMCs) were obtained from Discovery Life Sciences from patients diagnosed with lupus, rheumatoid arthritis, and scleroderma. One sample was obtained from a person diagnosed with systemic lupus erythematosus (SLE) undergoing active treatment with methotrexate, Celebrex, prednisone, and Benlysta. A second sample was obtained from a person diagnosed with scleroderma (SSc) before receiving treatment. A third sample was obtained from a person diagnosed with rheumatoid arthritis (RA) undergoing active treatment with Nabumetone. All samples were collected following informed consent.\nThe PBMCs were thawed, washed, and resuspended in AIM V media with 5% human AB serum (hAB) at a concentration of 1×10^6 cells/mL. PBMCs were seeded in a 24 well plate (1×10^6 cells/well) and treated with a 17 μM of LX-101 or hydrochloric acid (HCl) as a vehicle control. […]\nAfter the three day incubation with LX-101 or the vehicle control, the PBMCs were blocked with human TruStain FcX Fc receptor blocking solution, and stained with an antibody mixture with markers shown in Table 2. […] Data were analyzed with Kaluza software.\nThe effect of LX-101 was analyzed for both the bulk PBMC and IGF-1R^+ subpopulations. The percentages of live, B cells, CD4^+ T cells, CD8^+ T cells, NK cells, and NKT cells were determined."}, "[3]": {"tested_on": "IGF-1R+ subpopulations of PBMCs from patients with SLE, RA and SSc", "assay": "Effect of LX-101 on IGF-1R+ PBMC subpopulations (percentage of live IGF-1R+ cells by flow cytometry)", "format": "cell-based, human", "conditions": "17 μM LX-101, three days", "source_text": "Frozen peripheral blood mononuclear cells (PBMCs) were obtained from Discovery Life Sciences from patients diagnosed with lupus, rheumatoid arthritis, and scleroderma. One sample was obtained from a person diagnosed with systemic lupus erythematosus (SLE) undergoing active treatment with methotrexate, Celebrex, prednisone, and Benlysta. A second sample was obtained from a person diagnosed with scleroderma (SSc) before receiving treatment. A third sample was obtained from a person diagnosed with rheumatoid arthritis (RA) undergoing active treatment with Nabumetone. All samples were collected following informed consent. The PBMCs were thawed, washed, and resuspended in AIM V media with 5% human AB serum (hAB) at a concentration of 1×10^6 cells/mL. PBMCs were seeded in a 24 well plate (1×10^6 cells/well) and treated with a 17 μM of LX-101 or hydrochloric acid (HCl) as a vehicle control. LX-101 was supplied at a concentration of 4 mM (where the concentration is expressed in terms of the amount of methotrexate in the drug) in 10 mM HC1. The vehicle control groups received the same concentration of HCl as that in the LX-101 solution received by the treatment group. PBMCs were incubated at 37° C. with 5% CO2 for three days. After the three day incubation with LX-101 or the vehicle control, the PBMCs were blocked with human TruStain FcX Fc receptor blocking solution, and stained with an antibody mixture with markers shown in Table 2. Cells were fixed and flow cytometric data were collected for 50,000 live cell events using a BD LSRFortessa X-20 flow cytometer. Data were analyzed with Kaluza software. The effect of LX-101 was analyzed for both the bulk PBMC and IGF-1R^+ subpopulations. The percentages of live, B cells, CD4^+ T cells, CD8^+ T cells, NK cells, and NKT cells were determined."}, "IGFBPs": {"tested_on": "IGFBPs", "conditions": "known in the art (U.S. Pat. No. 4,876,242; Francis et al. 1992); cited from earlier work"}, "IGF-1R": {"molecular_target": "IGF-1R (Homo sapiens, UniProt P08069)", "sequence (P08069 31-736 limits assumed, species assumed)": "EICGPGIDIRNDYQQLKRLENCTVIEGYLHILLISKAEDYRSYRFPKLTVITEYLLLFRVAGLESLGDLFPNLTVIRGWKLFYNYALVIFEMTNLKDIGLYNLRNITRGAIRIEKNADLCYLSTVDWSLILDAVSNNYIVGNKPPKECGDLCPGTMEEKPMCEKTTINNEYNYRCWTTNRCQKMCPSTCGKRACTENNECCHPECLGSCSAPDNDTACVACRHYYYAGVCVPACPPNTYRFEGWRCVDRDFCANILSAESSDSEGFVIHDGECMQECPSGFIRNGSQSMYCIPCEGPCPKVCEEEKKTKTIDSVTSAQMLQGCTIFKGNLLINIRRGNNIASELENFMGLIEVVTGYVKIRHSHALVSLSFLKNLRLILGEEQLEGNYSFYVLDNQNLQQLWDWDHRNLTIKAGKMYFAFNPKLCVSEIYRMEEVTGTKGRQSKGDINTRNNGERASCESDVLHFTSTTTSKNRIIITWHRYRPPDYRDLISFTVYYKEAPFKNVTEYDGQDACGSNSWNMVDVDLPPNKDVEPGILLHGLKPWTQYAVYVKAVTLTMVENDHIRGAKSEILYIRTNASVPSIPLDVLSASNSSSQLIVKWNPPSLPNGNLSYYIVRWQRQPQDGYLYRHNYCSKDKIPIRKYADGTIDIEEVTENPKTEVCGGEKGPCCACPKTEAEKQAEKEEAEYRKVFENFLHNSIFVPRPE", "sequence (P08069 741-1367 partner limits assumed, species assumed)": "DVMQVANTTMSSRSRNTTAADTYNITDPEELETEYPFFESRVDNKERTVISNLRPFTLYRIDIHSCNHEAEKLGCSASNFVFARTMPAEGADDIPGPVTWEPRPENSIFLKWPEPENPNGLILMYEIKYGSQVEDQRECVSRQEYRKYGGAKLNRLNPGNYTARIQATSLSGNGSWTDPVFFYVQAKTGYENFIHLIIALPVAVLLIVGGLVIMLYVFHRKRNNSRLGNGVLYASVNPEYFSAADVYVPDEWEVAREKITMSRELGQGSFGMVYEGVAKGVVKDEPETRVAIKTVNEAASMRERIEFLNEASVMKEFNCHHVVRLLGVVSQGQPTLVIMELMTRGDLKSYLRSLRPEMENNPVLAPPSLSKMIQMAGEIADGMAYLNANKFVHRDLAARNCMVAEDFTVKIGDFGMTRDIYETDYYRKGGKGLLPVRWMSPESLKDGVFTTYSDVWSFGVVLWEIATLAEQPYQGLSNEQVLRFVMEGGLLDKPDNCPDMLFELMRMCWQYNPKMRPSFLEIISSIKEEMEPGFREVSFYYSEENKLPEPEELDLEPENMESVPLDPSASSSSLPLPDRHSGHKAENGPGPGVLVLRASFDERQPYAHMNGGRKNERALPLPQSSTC", "conditions": "Hakuno et al. 2018; cited from earlier work"}, "[4]": {"conditions": "PBMCs from SLE, RA and SSc patients"}},
  "note": "“Also recorded” adds a separate entry of the source.",
  "data": [
    {"molecule": "Benlysta: a B lymphocyte stimulator (BLyS)-specific inhibitor", "values": [
      {"measurement": "number of CD3+ T cells", "setting": "[1]", "result": "not affected"},
      {"measurement": "total CD19+ B cells in the peripheral blood", "setting": "[1]", "result": "decrease"}
    ]},
    {"molecule": "LX-101", "values": [
      {"measurement": "off-target effects in IGF-1R− cells", "setting": "[2]", "result": "Little off-target effects"},
      {"measurement": "percentage of live B cells, CD4+ T cells, CD8+ T cells, NK cells and NKT cells in the bulk PBMC population, vs vehicle control", "setting": "[2]", "result": "Little difference"},
      {"measurement": "percentage of IGF-1R+CD19+ B cells vs vehicle control", "setting": "[3]; [4]", "result": "reduced percentages; also recorded: reduction"},
      {"measurement": "percentage of live IGF-1R+ cells (all subpopulations) vs vehicle control", "setting": "[3]; [4]", "result": "marked reductions; also recorded: Reduced percentages"},
      {"measurement": "IGF-1R+CD3+CD8+ T cells vs vehicle control", "setting": "[3]; SLE, RA and SSc samples", "result": "reduction; also recorded: reduced percentages"},
      {"measurement": "IGF-1R+CD56+CD3+ natural killer T (NKT) cells vs vehicle control", "setting": "[3]; SLE, RA and SSc samples", "result": "modest reduction; also recorded: reduced percentages"},
      {"measurement": "IGF-1R+CD3+CD4+ T cells vs vehicle control", "setting": "[3]; SLE, RA and SSc samples, especially RA sample", "result": "substantial reduction; also recorded: reduced percentages"},
      {"measurement": "IGF-1R+CD56+CD3− natural killer (NK) cells vs vehicle control", "setting": "[3]; particularly samples from SLE and RA patients", "result": "reduction; also recorded: reduced percentages"}
    ]},
    {"molecule": "R3-IGF-1: glutamic acid in position 3 of native human IGF-1 is substituted by arginine", "values": [
      {"measurement": "binding affinity for IGFBPs compared to wildtype IGF-1", "setting": "IGFBPs", "result": "reduced binding affinity"}
    ]},
    {"molecule": "des (1-3) IGF-1: lacks the first three amino acids of human IGF-1", "values": [
      {"measurement": "binding affinity for IGFBPs compared to wildtype IGF-1", "setting": "IGFBPs", "result": "reduced binding affinity"}
    ]},
    {"molecule": "insulin: native ligand to the IGF-1R; two chains connected by disulfide bonds", "values": [
      {"measurement": "affinity for IGF-1R, fold lower than the IGFs", "setting": "IGF-1R", "result": "50- to 100 fold"}
    ]},
    {"molecule": "B1", "values": [
      {"measurement": "binding affinity for IGFBPs compared to wildtype IGF-1", "setting": "IGFBPs", "result": "reduced binding affinity"}
    ]}
  ]
}
